# Where “and” joins values, the source holds several entries; their conditions need not be identical. Equal entries are not always repeated.
# Tested on: 242566-281-R-J2-PDC complex spheroid viability
# Assay: Anticancer human tumor 242566-281-R-J2-PDC patient-derived pancreatic carcinoma cell line growth inhibition [RAS]
# Conditions: for viability, T/C: stronger effect = lower value
# Description: RAS pathway inhibitors in Combinations in Complex Spheroids
# A high-throughput screen of multi-cell type tumor spheroids was designed to identify active combinations of RAS pathway inhibitors and targeted small molecules. Complex spheroids include a stromal component modeled by human endothelial cells (HUVEC) and fibroblasts modeled by human mesenchymal stem cells (MSCs). The concentration ranges selected for each drug and investigational agent were based upon clinically achievable concentrations if the clinical Cmax of the agent was known.
# Compounds. The drugs and investigational agents: abemaciclib (NSC768073), cobimetinib (NSC768068), divarasib (GDC6063, NSC841802), docetaxel (NSC628503), GDC-1971 (RLY-1971, NSC841576), gemcitabine (NSC613327), inavolisib (NSC800729), ipatasertib (NSC767898), KB-0742 (NSC834161), MRTX-1133 (NSC836407), osimertinib (NSC779217), RMC-4630 (NSC839698), RMC-6236 (NSC851965), RMC-6291 (NSC852671), Ro-3306 (NSC812927), sapanisertib (NSC764658), SN-38 (NSC673596), staurosporine (NSC755774), SY5609 (NSC837396), and tovorafenib (DAY101, NSC766906), were obtained from the National Cancer Institute (NCI) Developmental Therapeutics Program Chemical Repository. The FDA-approved anticancer drug set is available from the NCI Developmental Therapeutics Program. […] The stock solutions were prepared in dimethyl sulfoxide (DMSO, Sigma-Aldrich, St. Louis, MO, cat. D2650) at 800-fold the tested concentration and stored at -70 degrees C prior to their use. All drugs and investigational agents were tested over a range starting from a high concentration at or near the clinical Cmax and decreasing in half-log increments. If the clinical Cmax for an agent had not been determined, the highest concentration tested was 10 microM.
# Cell Culture. All cells were maintained in an incubator at 37 degrees C and 5% CO2 with 95% humidity. The PDC lines were cultured according to standard operating procedures established by the NCI PDMR. All PDCs were thawed and cultured in Matrigel-coated flasks prepared with a working solution of 1X Ham's F-12 nutrient mix, without supplementation (Invitrogen, Waltham, MA, cat. 11765054), 100 U/mL penicillin-streptomycin (Invitrogen, cat. 15140122), and 2.5% Matrigel (Corning Inc., Corning, NY, cat. 354248) for the first three passages. The 362531-283-R-J2-PDC and 782815-120-R-J1-PDC lines were cultured in 6C/Colon 1B media, which includes advanced DMEM/F-12 (Thermo Fisher Scientific, cat. 12634028), 10 mM HEPES (Thermo Fisher Scientific, cat. 15630080), 1X GlutaMAX supplement (Thermo Fisher Scientific, cat. 35050061), 0.1 mg/mL primocin (InvivoGen, San Diego, CA, cat. ant-pm-2), 10% defined fetal bovine serum, heat inactivated (HyClone Laboratories Inc., Logan, UT, cat. SH30070.03HI), 50% L-WRN conditioned media (ATCC, cat. CRL-3276), 1.25 mM N-Acetyl-L-cysteine (Sigma-Aldrich, cat. A9165), 10 mM nicotinamide (Sigma-Aldrich, cat. N0636), 1X B-27 supplement (Thermo Fisher Scientific, cat. 17504044), 1X N-2 supplement (Thermo Fisher Scientific, cat. 17502048), 50 ng/mL human EGF (Thermo Fisher Scientific, cat. PHG0311), and 10 microM Y-27632 dihydrochloride (Tocris Bioscience, cat. 1254). The K12877-001-R-J1-PDC line was cultured in 6I media, which includes all 6C/Colon 1B media plus 10 ng/mL human FGF-10 (PeproTech, cat. 100-26), 1 ng/mL human FGF-2 (PeproTech, cat. 100-18B), 1 µM prostaglandin E2 (Tocris Bioscience, cat. 2296), […] hydrocortisone (Sigma-Aldrich, cat. H4001), and […] bovine insulin (Sigma-Aldrich, cat. I6634). The K86415-001-R-J1-PDC line was cultured in 6D media, which includes all 6C/Colon 1B media components minus the L-WRN conditioned media. The 485176-168-R4-J1-PDC was cultured in PANC media, which includes all 6C/Colon 1B media plus 100 ng/mL human FGF-10 (PeproTech, cat. 100-26), 500 nM SB-431542 (Selleckchem, cat. S1067), and 10 nM gastrin (Tocris Bioscience, cat. 3006). […]
# [1] = curve of first compound, second compound 0.00316 µM
# [2] = curve of first compound, second compound 0.01 µM
# [3] = curve of first compound, second compound 0.0316 µM
# [4] = curve of first compound, second compound 0.1 µM
# [5] = curve of first compound, second compound 0.316 µM
# [6] = curve of first compound, second compound 1 µM
# [7] = second compound 0.00316 µM, first compound 0.00316 µM
# [8] = second compound 0.00316 µM, first compound 0.01 µM
# [9] = second compound 0.00316 µM, first compound 0.0316 µM
# [10] = second compound 0.00316 µM, first compound 0.1 µM
# [11] = second compound 0.01 µM, first compound 0.00316 µM
# [12] = second compound 0.01 µM, first compound 0.01 µM
# [13] = second compound 0.01 µM, first compound 0.0316 µM
# [14] = second compound 0.01 µM, first compound 0.1 µM
# [15] = second compound 0.0316 µM, first compound 0.00316 µM
# [16] = second compound 0.0316 µM, first compound 0.01 µM
# [17] = second compound 0.0316 µM, first compound 0.0316 µM
# [18] = second compound 0.0316 µM, first compound 0.1 µM
# [19] = second compound 0.1 µM, first compound 0.00316 µM
# [20] = second compound 0.1 µM, first compound 0.01 µM
# [21] = second compound 0.1 µM, first compound 0.0316 µM
# [22] = second compound 0.1 µM, first compound 0.1 µM
# [23] = second compound 0.316 µM, first compound 0.00316 µM
# [24] = second compound 0.316 µM, first compound 0.01 µM
# [25] = second compound 0.316 µM, first compound 0.0316 µM
# [26] = second compound 0.316 µM, first compound 0.1 µM
# [27] = second compound 1 µM, first compound 0.00316 µM
# [28] = second compound 1 µM, first compound 0.01 µM
# [29] = second compound 1 µM, first compound 0.0316 µM
# [30] = second compound 1 µM, first compound 0.1 µM
# 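Note: spheroids exposed to compound for 7 days before readout.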
# 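Throughout, for viability, T/C: 100% = DMSO vehicle control wells.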
smiles,measurement,setting,value
NC1c2ccccc2OC12CCN(c1cnc3c(N4CCCc5ncccc54)n[nH]c3n1)CC2 (configuration not stated),"viability, T/C",compound 1 µM,68.9% [middle of 4 runs]
same,"viability, T/C",compound 10 µM,51.8% [middle of 4 runs]
same,IC50,curve of compound,> 10 µM and 3.3 µM and 3.4 µM
O=C(c1ccc(F)c(F)c1Nc1ccc(I)cc1F)N1CC(O)([C@@H]2CCCCN2)C1 + C=CC(=O)N1CCN(c2nc(OCC3CCCN3C)nc3c(F)c(-c4nc(N)cc(C)c4C(F)(F)F)c(Cl)cc23)C(C)C1,IC50,[1],0.26 µM
same,IC50,[2],0.677 µM
same,IC50,[3],0.436 µM
same,IC50,[4],0.593 µM
same,IC50,[5],> 1 µM
same,IC50,[6],0.281 µM
same,"viability, T/C",[7],91.4%
same,"viability, T/C",[8],116%
same,"viability, T/C",[9],92.6%
same,"viability, T/C",[10],64.8%
same,"viability, T/C","second compound 0.00316 µM, first compound 0.316 µM",48%
same,"viability, T/C","second compound 0.00316 µM, first compound 1 µM",43.9%
same,"viability, T/C",[11],92.5%
same,"viability, T/C",[12],116%
same,"viability, T/C",[13],79.7%
same,"viability, T/C",[14],73.5%
same,"viability, T/C","second compound 0.01 µM, first compound 0.316 µM",53.5%
same,"viability, T/C","second compound 0.01 µM, first compound 1 µM",47.4%
same,"viability, T/C",[15],104%
same,"viability, T/C",[16],117%
same,"viability, T/C",[17],80.2%
same,"viability, T/C",[18],74.6%
same,"viability, T/C","second compound 0.0316 µM, first compound 0.316 µM",52.9%
same,"viability, T/C","second compound 0.0316 µM, first compound 1 µM",42.1%
same,"viability, T/C",[19],103%
same,"viability, T/C",[20],104%
same,"viability, T/C",[21],94.4%
same,"viability, T/C",[22],70.6%
same,"viability, T/C","second compound 0.1 µM, first compound 0.316 µM",60.6%
same,"viability, T/C","second compound 0.1 µM, first compound 1 µM",43%
same,"viability, T/C",[23],103%
same,"viability, T/C",[24],113%
same,"viability, T/C",[25],68.3%
same,"viability, T/C",[26],70.7%
same,"viability, T/C","second compound 0.316 µM, first compound 0.316 µM",61%
same,"viability, T/C","second compound 0.316 µM, first compound 1 µM",48.7%
same,"viability, T/C",[27],101%
same,"viability, T/C",[28],112%
same,"viability, T/C",[29],97.9%
same,"viability, T/C",[30],73.4%
same,"viability, T/C","second compound 1 µM, first compound 0.316 µM",45.8%
same,"viability, T/C","second compound 1 µM, first compound 1 µM",44.6%
CC(C)n1nc(-c2ccc3oc(N)nc3c2)c2c(N)ncnc21 + C=CC(=O)N1CCN(c2nc(OCC3CCCN3C)nc3c(F)c(-c4nc(N)cc(C)c4C(F)(F)F)c(Cl)cc23)C(C)C1,IC50,[1],> 0.1 µM
same,IC50,[2],> 0.1 µM
same,IC50,[3],> 0.1 µM
same,IC50,[4],> 0.1 µM
same,IC50,[5],> 0.1 µM
same,IC50,[6],> 0.1 µM
same,"viability, T/C","second compound 0.00316 µM, first compound 0.000316 µM",93.1%
same,"viability, T/C","second compound 0.00316 µM, first compound 0.001 µM",154%
same,"viability, T/C",[7],91.4%
same,"viability, T/C",[8],78.9%
same,"viability, T/C",[9],58.5%
same,"viability, T/C",[10],53.8%
same,"viability, T/C","second compound 0.01 µM, first compound 0.000316 µM",111%
same,"viability, T/C","second compound 0.01 µM, first compound 0.001 µM",150%
same,"viability, T/C",[11],94.9%
same,"viability, T/C",[12],72.7%
same,"viability, T/C",[13],55.5%
same,"viability, T/C",[14],53.6%
same,"viability, T/C","second compound 0.0316 µM, first compound 0.000316 µM",101%
same,"viability, T/C","second compound 0.0316 µM, first compound 0.001 µM",138%
same,"viability, T/C",[15],83.4%
same,"viability, T/C",[16],79.2%
same,"viability, T/C",[17],67.1%
same,"viability, T/C",[18],54.6%
same,"viability, T/C","second compound 0.1 µM, first compound 0.000316 µM",98.5%
same,"viability, T/C","second compound 0.1 µM, first compound 0.001 µM",111%
same,"viability, T/C",[19],89.9%
same,"viability, T/C",[20],84.3%
same,"viability, T/C",[21],62%
same,"viability, T/C",[22],55.7%
same,"viability, T/C","second compound 0.316 µM, first compound 0.000316 µM",109%
same,"viability, T/C","second compound 0.316 µM, first compound 0.001 µM",107%
same,"viability, T/C",[23],107%
same,"viability, T/C",[24],81.5%
same,"viability, T/C",[25],69.5%
same,"viability, T/C",[26],55.3%
same,"viability, T/C","second compound 1 µM, first compound 0.000316 µM",109%
same,"viability, T/C","second compound 1 µM, first compound 0.001 µM",140%
same,"viability, T/C",[27],86.4%
same,"viability, T/C",[28],88.3%
same,"viability, T/C",[29],75.2%
same,"viability, T/C",[30],55.7%

# Source: PubChem BioAssay AID2060910 (Molecular Pharmacology Branch, DTP, NCI, 2025)
